This note sets out measurements from US6046231A, “Use of 4'-bromoflavone in a cancer chemopreventative composition and method” (The Board of Trustees of the University of Illinois, priority 1999, dated 2000).

Series [1] relates to QR mRNA, Hepa 1c1c7 cells. The series is described as follows: RT-PCR of QR mRNA in Hepa 1c1c7 cells. The class given is cell-based, murine. On the procedure:
RT-PCR Analysis of QR mRNA Expression. Primers were designed based on rat QR gene and custom synthesis. Total RNA was isolated from cultured Hepa 1c1c7 cells with TRIzol® reagent (Life Technologies, Inc.) and quantified using a UV-spectrometer. The reverse transcription of RNA was performed in a final volume of 20 μl containing 5× First Straind Synthesis Buffer (Life Technologies, Inc.), 5 mM MgCl2, 1 mM of each dNTPs, 1 unit Rnase inhibitor (Life Technologies, Inc.), 2.5 units SuperScript II reverse transcriptase (Life Technologies, Inc.), 2.5 μM oligo (dT)16, 0.2 μg total RNA, and DEPC-treated water. After incubation at 47° C. for 30 min, the RT-reaction was terminated by heating to 70° C. for 15 minutes. To the newly synthesized cDNA (1 μL), a PCR reaction mixture (Advantage KlenTaq polymerase Mix, CloneTech) containing 3 mM MgCl2, 2.5 units Taq polymerase, 6 pmol of primers for QR gene (5'-[…]-3'; and 3 pmol of primers for β-actin, 5'-[…]-3'), (5'-[…]-3'; 5'-[…]-3') as internal control was added to bring the final volume to 50 μl. The PCR reaction was heated to 94° C. for 1 min and immediately cycled 27 times through a 30 second denaturing step at 94° C., a 45 second annealing step at 55° C., a 60 second elongation step at 72° C. with Perkin Elmer 2400 themocycler. Following the final cycle, a 5 minute elongation step at 72° C. was performed. Aliquots of the PCR product were electrophoresed on 2.5% agarose gels (Life Technologies, Inc.), and PCR fragments were visualized with ethidium bromide staining, quantified by scanning densitometry, and expressed as folds increase after normalization to β-actin gene expression.
Induction of QR mRNA in Hepa 1c1c7 Cells. […] EHPA 1c1c7 cells were treated with 4'-BF (10 μM) or DMSO (solvent control) for 2, 4, 8, 16, 24, or 48 hours. […] Dose-dependent effects of 4'-BF were analyzed at the time of maximum induction (24 hours), and QR mRNA expression was induced in the concentration range of 0.8-50 μM. In particular, FIG. 2 illustrates RT-PCR analysis of QR mRNA levels in Hepa 1c1c7 cells after treatment with 4'-BF. In FIG. 2(A), Hepa 1c1c7 cells were treated with the indicated concentrations of 4'-BF for 24 hours. In FIG. 2(B), Hepa 1c1c7 cells were treated with 10 μM 4'-BF for the indicated periods of time. Reverse transcription was carried out by SuperScript II reverse transcriptase (Life Technologies, Inc.) and oligo(dT)16. The cDNA was amplified with Advantage Klen Taq polymerase (Clontech) by using QR primers and β-acrin (internal control), aliquots of the PCR product were electrophoresed on 2.5% agarose gels (Bio-Rad), and PCR fragments were visualized with ethidium bromide staining.

The test system of series [2] is Hepa 1c1c7 cells. The series is described as follows: Hepa 1c1c7 cell viability (cytotoxicity). The series is classed as cell-based, murine. The conditions noted are these: for IC50: read-out: IC50, concentration for 50% inhibition of cell viability.
Series [3] has as its system H4IIE rat hepatoma cells. Description: Toxicity in H4IIE rat hepatoma cells. The series is classed as cell-based.
In series [4] the test system is MCF-7 cells (B[α]P-DNA adducts). Description: Binding of metabolically activated [3H]B[α]P to DNA of cultured MCF-7 cells. To be noted: Homo sapiens, MCF7, read-out: IC50, formation of B[α]P-DNA adducts, MCF-7. The class given is cell-based. On the procedure: Effect of 4'-BF on the Binding of Metabolically Activated [^3 H]B[α]P to DNA of Cultured Cells. HepG2 cells or MCF-7 cells were plated at a density of 1×10^6 cells/dish in 6 cm Petri dishes and allowed to incubate for 18 hours. Fresh media containing test samples were added to the cells 2 hours prior to the addition of 1 μM [^3 H]B[α]P (10 Ci/mmol) The test compound and tritiated carcinogen then were incubated for 6 hours. Following incubation, genomic DNA was extracted by the method described by Sharma et al., with minor modifications. Briefly, the cells were washed three times with PBS and harvested by incubation with 0.5 ml of proteinase K (100 μg/ml) in 0.2 M Tris-0.1 M EDTA (pH 8.5) for 10 min at 37° C. The cells were gently scraped from the dishes, transferred to 50 μl of 10% SDS solution, and incubated for 3 hours at 55° C. […] An aliquot of harvested DNA was used for measuring the relative absorbencies at 260 and 280 nm (A2360 nm/A2380 nm=1.7-1.9), and the DNA content was determined by absorbance at 260 nm (1 A2360 nm unit=50 μg). The remaining sample was used for the determination of radioactivity. All experiments were performed in triplicate; percentage inhibition of carcinogen-DNA binding mediated by test samples was calculated as follows: % inhibition=[1-(dpm per μg DNA test cells/dpm per μg DNA control cells)]×100.

Like-named read-outs stand apart in the source and are kept apart here. Some results are limits rather than exact numbers.

`O=c1cc(-c2ccc(Br)cc2)oc2ccccc12` [4'-Bromoflavone]: in series [1] (0-50 μM for 24 h), the “QR mRNA levels” value was “significantly increased by 4'-BF at various concentrations”. For the same compound, in series [1] (10 μM), the “QR mRNA, time course from 8 to 24 hours” value was “no significant differences from 8 to 24 hours”; the “incubation time after which QR mRNA increased” value was found to be 8 h; the “time of maximum QR mRNA induction” value is 24 h. The “concentration range of QR mRNA induction” value in series [1] (24 h) was in the range of 0.8 to 50 µM. In addition, the IC50 in series [2] (Hepa 1c1c7 cells) is no less than 166 µM. The IC50 in series [2] (Mus musculus, Hepa-1c1c7, Hepa 1c1c7 cells) is greater than 166 µM. The “times less toxic than sulforaphane” value in series [2] (compared to sulforaphane) is on record as “about 15 times”. The “toxicity in H4IIE cells” value in series [3] was “no observed toxicity”. Further, the IC50 in series [4] was roughly 1.7 µM.
